Experimental data published in patent publication US20260297087A1, “Pyridoimidazolone Compounds, Preparation Thereof and Therapeutic Uses Thereof” (Sanofi, priority 2023, published 2026).
Read-outs that look alike come from different tables or passages of the source.

Key:
ERK5 = target: T1, ERK5 (Homo sapiens, UniProt Q13164); assay: Inhibition of Cellular ERK5 Activity (cell-based assay, MEF2 luciferase reporter in SN12C cells); conditions: renal cancer cell line SN12C, doxycycline-induced MEKSDD, mean where repeated
T1 construct: MEF2-luciferase reporter
T1 sequence (Q13164 whole entry): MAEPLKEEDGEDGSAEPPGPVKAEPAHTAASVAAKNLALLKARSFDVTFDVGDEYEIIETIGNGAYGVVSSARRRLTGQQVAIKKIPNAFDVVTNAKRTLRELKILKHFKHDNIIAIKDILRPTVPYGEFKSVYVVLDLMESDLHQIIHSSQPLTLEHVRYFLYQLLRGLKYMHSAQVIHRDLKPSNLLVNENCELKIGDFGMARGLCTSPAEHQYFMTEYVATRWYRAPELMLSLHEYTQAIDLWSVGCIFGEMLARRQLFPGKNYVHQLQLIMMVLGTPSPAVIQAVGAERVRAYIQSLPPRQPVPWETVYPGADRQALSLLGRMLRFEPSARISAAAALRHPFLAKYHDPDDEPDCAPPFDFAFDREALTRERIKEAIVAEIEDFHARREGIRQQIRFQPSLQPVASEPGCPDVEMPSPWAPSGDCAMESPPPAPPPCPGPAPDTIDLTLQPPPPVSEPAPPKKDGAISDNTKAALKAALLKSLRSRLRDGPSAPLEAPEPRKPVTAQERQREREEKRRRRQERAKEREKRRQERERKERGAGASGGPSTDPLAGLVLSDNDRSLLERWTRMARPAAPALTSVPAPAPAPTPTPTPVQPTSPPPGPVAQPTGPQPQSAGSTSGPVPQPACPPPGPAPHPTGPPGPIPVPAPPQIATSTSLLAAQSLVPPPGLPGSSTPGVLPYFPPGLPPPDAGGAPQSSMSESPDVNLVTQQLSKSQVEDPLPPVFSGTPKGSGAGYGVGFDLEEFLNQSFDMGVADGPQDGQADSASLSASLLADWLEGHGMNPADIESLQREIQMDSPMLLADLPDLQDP
Experimental: (§1) Two assays were performed to assess the ERK5 inhibitory activity of compounds of the Examples, a cell-based assay and a cell-free biochemical assay. Where repeat measurements were taken, the value reported is a mean average.
The renal cancer cell line SN12C was transduced by a lentivirus pGreenFire1 MEF2 EF1 Neo (ref TR030VA-N) from SBI using standard infection protocol. pGreenFire1 MEF2 EF1 Neo allows the expression of luciferase gene under the control of minimal promoter with MEF2 transcriptional response elements. Cells harboring the reporter construct were selected by geneticin treatment. The selected cells were then transposed by a piggyback based plasmid pCM4007 allowing the expression of constitutively activated MEKSDD under control of TREG3 promoter, a doxycycline regulated promoter. Transposed cells were selected by puromycin treatment. Upon doxycycline treatment (1p g/ml) MEKSDD was expressed. MEKSDD activates ERK5 that phosphorylates MEF2C protein. Activated MEF2C protein can bind to its transcriptional response elements. Then the luciferase is expressed. In a 96-well plate (96F nuncleon refl37101 thermofisher), 50,000 cells were inoculated in 142.5 μl of RPMI medium containing 10% fetal calf serum, 1% glutamine, and 1 μg/ml doxycycline. After 24 hours, compounds were added in 7.5 μl culture medium (with 2% DMSO to give a final concentration of 0.1%) in order to obtain the desired concentration (0.3-1000 nM). The luciferase activity was measured using the Kit Bright Glo Luminescent Cell Assay Cat E2610 (Promega) according to the manufacturer's protocol. Luminescence was determined using 0.2 second reading/well using a Tecan SPARK. IC50 values were calculated using XLFIT5 for Microsoft Excel using method 205. The IC50 values represent the concentration of compound which inhibits the measurable luminescence signal by 50% as compared to DMSO-treated control cells.

[1] = target: T2, ERK5 (activated catalytic domain) (Homo sapiens, UniProt Q13164); assay: Cell-Free Assay of ERK5 Inhibition (Time-Resolved FRET, 4EBP1 peptide phosphorylation); assay type: biochemical
T2 construct: purchased CarnaBiosciences 04-146
T2 sequence (Q13164 55-347 limits assumed): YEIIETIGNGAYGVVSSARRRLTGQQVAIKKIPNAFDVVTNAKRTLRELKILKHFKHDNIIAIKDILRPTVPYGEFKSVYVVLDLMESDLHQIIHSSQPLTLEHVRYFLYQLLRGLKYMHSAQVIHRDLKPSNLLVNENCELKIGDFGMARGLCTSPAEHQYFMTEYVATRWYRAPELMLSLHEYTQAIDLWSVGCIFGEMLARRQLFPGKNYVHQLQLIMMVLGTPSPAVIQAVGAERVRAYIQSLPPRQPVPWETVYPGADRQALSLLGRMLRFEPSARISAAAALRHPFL
Experimental: as §1
An assay was performed to measure the capacity of each compound to inhibit ERK5 enzymatic activity. Compound potency was evaluated by Time-Resolved Forster Resonance Energy Transfer (FRET system). The activated catalytic domain of protein ERK5 (CarnaBiosciences #04-146) was mixed at 4 nM with varying concentrations of compound and incubated for 30 minutes at room temperature. A mixture of 1 mM ATP and 1 μM biotinylated synthetic peptide was added (Biosyntan GmbH). This synthetic peptide represents amino acids 30-52 of Eukaryotic translation initiation factor 4E-binding protein 1 (see, e.g., the sequence under accession No. NP_004086.1) biotinylated at the N-terminus. After 30 minutes at 37° C., the peptide phosphorylation by ERK5 was measured by addition of FRET reagents consisting of 12.5 μg/ml Streptavidin-XL665, 1 nM Anti-P-4EBP1 antibody and 300 ng/ml Anti-rabbit-K antibody. Following 90 minutes at room temperature fluorescent signals were read on the Pherastar FSX multimod detector from BMG Labtech (Exc° 340 nm, Em1 620 nm, Em2 665 nm). The IC50 values represent the concentration of compound which inhibits the measurable fluorescence signal by 50% as compared to the DMSO only control.

[2] = ERK5 catalytic domain 4 nM, 1 mM ATP, 1 μM biotinylated 4EBP1 peptide, 30 min at 37° C., mean where repeated, read-out: Cell-free assay (IC50 in nM)

Compound | IC50 (ERK5) [nM] | IC50 [1, 2] [nM] | IC50 ([1]; footnote: repeat measurement, mean average value, read-out: Cell-free assay IC50, repeat measurement) [nM]
O=C(c1ccc(OC(F)(F)F)cc1O)N1CCC(n2c(=O)[nH]c3ncc(C4CCOCC4)cc32)CC1 [Example 18, 1-[1-[2-Hydroxy-4-(trifluoromethoxy)benzoyl]-4-piperidyl]-6-tetrahydropyran-4-yl-3H-imidazo[4,5-b]pyridin-2-one] | 90 | 54 | 82
O=C(c1ccc(S(F)(F)(F)(F)F)cc1)N1CCC(n2c(=O)[nH]c3ncc(C4CCOCC4)cc32)CC1 [Example 19, 1-[1-[4-(Pentafluoro-λ^6-sulfanyl)benzoyl]-4-piperidyl]-6-tetrahydropyran-4-yl-3H-imidazo[4,5-b]pyridin-2-one] | 199 | 257 | 
Cc1nc2[nH]c(=O)n(C3CCN(C(=O)c4ccc(OC(F)(F)F)cc4N)CC3)c2cc1C1CCOCC1 [Example 20, 1-[1-[2-amino-4-(trifluoromethoxy)benzoyl]-4-piperidyl]-5-methyl-6-tetrahydropyran-4-yl-3H-imidazo[4,5-b]pyridin-2-one] | 486 | 1100 | 
Nc1cc(OC(F)(F)F)ccc1C(=O)N1CCC(n2c(=O)[nH]c3ncc(C4CC5(CC(F)C5)C4)cc32)CC1 (stereo not drawn) [Example 21, 1-[1-[2-amino-4-(trifluoromethoxy)benzoyl]-4-piperidyl]-6-(2-fluorospiro[3.3]heptan-6-yl)-3H-imidazo[4,5-b]pyridin-2-one] | 42 | 395 | 
COCCc1cnc2[nH]c(=O)n(C3CCN(C(=O)c4ccc(OC(F)(F)F)cc4N)CC3)c2c1 [Example 24, 1-[1-[2-amino-4-(trifluoromethoxy)benzoyl]-4-piperidyl]-6-(2-methoxyethyl)-3H-imidazo[4,5-b]pyridin-2-one] | 67 | 502 | 
CO[C@H]1CC[C@H](c2cnc3[nH]c(=O)n(C4CCN(C(=O)c5ccc(OC(F)(F)F)cc5)CC4)c3c2)CC1 [Example 26, trans-6-(4-methoxycyclohexyl)-1-[1-[4-(trifluoromethoxy)benzoyl]-4-piperidyl]-3H-imidazo[4,5-b]pyridin-2-one] | 118 | 235 | 
CO[C@H]1CC[C@@H](c2cnc3[nH]c(=O)n(C4CCN(C(=O)c5ccc(OC(F)(F)F)cc5)CC4)c3c2)CC1 [Example 27, cis-6-(4-methoxycyclohexyl)-1-[1-[4-(trifluoromethoxy)benzoyl]-4-piperidyl]-3H-imidazo[4,5-b]pyridin-2-one] | 536 | 1180 | 
Nc1cc(OC(F)(F)F)ccc1C(=O)N1CCC(n2c(=O)[nH]c3ncc(C4CCC4)cc32)CC1 [Example 29, 1-[1-[2-amino-4-(trifluoromethoxy)benzoyl]-4-piperidyl]-6-cyclobutyl-3H-imidazo[4,5-b]pyridin-2-one] | 213 | 420 | 
Nc1cc(OC(F)(F)F)ccc1C(=O)N1CCC(n2c(=O)[nH]c3ncc(C45CC(C(F)(F)F)(C4)C5)cc32)CC1 [Example 30, 1-[1-[2-amino-4-(trifluoromethoxy)benzoyl]-4-piperidyl]-6-[3-(trifluoromethyl)-1-bicyclo[1.1.1]pentanyl]-3H-imidazo[4,5-b]pyridin-2-one] | 310 | 15300 | 
Nc1cc(OC(F)(F)F)ccc1C(=O)N1CCC(n2c(=O)[nH]c3ncc(C45CCC(C4)C5)cc32)CC1 [Example 32, 1-[1-[2-amino-4-(trifluoromethoxy)benzoyl]-4-piperidyl]-6-(1-bicyclo[2.1.1]hexanyl)-3H-imidazo[4,5-b]pyridin-2-one] | 347 | 1140 | 
Nc1cc(OC(F)(F)F)ccc1C(=O)N1CCC(n2c(=O)[nH]c3ncc(C45CC(C(F)F)(C4)C5)cc32)CC1 [Example 33, 1-[1-[2-amino-4-(trifluoromethoxy)benzoyl]-4-piperidyl]-6-[3-(difluoromethyl)-1-bicyclo[1.1.1]pentanyl]-3H-imidazo[4,5-b]pyridin-2-one] | 124 | 376 | 
Nc1cc(OC(F)(F)F)ccc1C(=O)N1CCC(n2c(=O)[nH]c3ncc(C4CCC(F)(F)CC4)cc32)CC1 [Example 35, 1-[1-[2-amino-4-(trifluoromethoxy)benzoyl]-4-piperidyl]-6-(4,4-difluorocyclohexyl)-3H-imidazo[4,5-b]pyridin-2-one] | 205 | 695 | 
Nc1cc(OC(F)(F)F)ccc1C(=O)N1CCC(n2c(=O)[nH]c3ncc(C4CCCCC4)cc32)CC1 [Example 36, 1-[1-[2-amino-4-(trifluoromethoxy)benzoyl]-4-piperidyl]-6-cyclohexyl-3H-imidazo[4,5-b]pyridin-2-one] | 285 | 888 | 
Nc1cc(OC(F)(F)F)ccc1C(=O)N1CCC(n2c(=O)[nH]c3ncc(C4CC5CCC4C5)cc32)CC1 (stereo not drawn) [Example 37, 1-[1-[2-amino-4-(trifluoromethoxy)benzoyl]-4-piperidyl]-6-norbornan-2-yl-3H-imidazo[4,5-b]pyridin-2-one] | 167 | 681 | 
Nc1cc(OC(F)(F)F)ccc1C(=O)N1CCC(n2c(=O)[nH]c3ncc(CC4CCOCC4)cc32)CC1 [Example 39, 1-[1-[2-amino-4-(trifluoromethoxy)benzoyl]-4-piperidyl]-6-(tetrahydropyran-4-ylmethyl)-3H-imidazo[4,5-b]pyridin-2-one] | 75 | 117 | 
O=C(c1ccc(OC(F)(F)F)cc1)N1CCC(n2c(=O)[nH]c3ncc(C4CCOCC4)cc32)CC1 [Example 41, 6-tetrahydropyran-4-yl-1-[1-[4-(trifluoromethoxy)benzoyl]-4-piperidyl]-3H-imidazo[4,5-b]pyridin-2-one] | 152 | 557 | 
O=C(c1ccc(OC(F)(F)F)cc1)N1CCC(n2c(=O)[nH]c3ncc(CC4COC4)cc32)CC1 [Example 42, 6-(oxetan-3-ylmethyl)-1-[1-[4-(trifluoromethoxy)benzoyl]-4-piperidyl]-3H-imidazo[4,5-b]pyridin-2-one] | 136 | 354 | 
CO[C@H]1CC[C@H](c2cnc3[nH]c(=O)n(C4CCN(C(=O)c5ccc(OC(F)(F)F)cc5N)CC4)c3c2)CC1 [Example 45, trans-1-[1-[2-amino-4-(trifluoromethoxy)benzoyl]-4-piperidyl]-6-(4-methoxycyclohexyl)-3H-imidazo[4,5-b]pyridin-2-one] | 29 | 107 | 
CO[C@H]1CC[C@@H](c2cnc3[nH]c(=O)n(C4CCN(C(=O)c5ccc(OC(F)(F)F)cc5N)CC4)c3c2)CC1 [Example 46, cis-1-[1-[2-amino-4-(trifluoromethoxy)benzoyl]-4-piperidyl]-6-(4-methoxycyclohexyl)-3H-imidazo[4,5-b]pyridin-2-one] | 199 | 643 | 
Nc1cc(OC(F)(F)F)ccc1C(=O)N1CCC(n2c(=O)[nH]c3ncc([C@H]4CC[C@H](O)CC4)cc32)CC1 [Example 51, trans-1-[1-[2-amino-4-(trifluoromethoxy)benzoyl]-4-piperidyl]-6-(4-hydroxycyclohexyl)-3H-imidazo[4,5-b]pyridin-2-one] | 205 | 52 | 
Nc1cc(OC(F)(F)F)ccc1C(=O)N1CCC(n2c(=O)[nH]c3ncc([C@H]4CC[C@@H](O)CC4)cc32)CC1 [Example 52, cis-1-[1-[2-amino-4-(trifluoromethoxy)benzoyl]-4-piperidyl]-6-(4-hydroxycyclohexyl)-3H-imidazo[4,5-b]pyridin-2-one] | 244 | 97 | 
Nc1cc(OC(F)(F)F)ccc1C(=O)N1CCC(n2c(=O)[nH]c3ncc(C4CCN(CC(F)(F)F)CC4)cc32)CC1 [Example 53, 1-[1-[2-amino-4-(trifluoromethoxy)benzoyl]-4-piperidyl]-6-[1-(2,2,2-trifluoroethyl)-4-piperidyl]-3H-imidazo[4,5-b]pyridin-2-one] | 184 | 405 | 
